Common to all, as to assay: inhibition of tumour cell growth, NCI panel, 48 h
Assay [1] concerns ACHN renal.
Assay [2] relates to HCT-15 colon.
Assay [3] relates to MDA-MB-231 breast.
Assay [4] deals with NCI-H226 lung.
For assay [5], the system named is NCI-H23 lung.
In assay [6] the test system is NCI/ADR-RES ovarian.
For assay [7], the system named is SK-MEL-28 melanoma.
The subject of assay [8] is SK-OV-3 ovarian.
Assay [9] has as its system SNB-75 CNS.
The test system of assay [10] is UO-31 renal.

Each structure is given as a SMILES string.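 Growth conditions: 96-well plates. Treatment: test compound, 48 hours, 5 concentrations. Analysis: linear interpolation between bracketing concentrations; unreached endpoints set to highest concentration. GI50 is the concentration that inhibits growth by half. At the TGI there is no net growth.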

In the case of `CC(C)(C)[Si](C)(C)OC1[C@@H](COC(=O)NC(=O)CCl)O[C@@H](n2cnc3c(N)ncnc32)[C@H]1O[Si](C)(C)C(C)(C)C` (some centres undefined), the GI50 in assay [1] is 1.38 µM; in assay [2], 1 µM; in [3], 1.12 µM; in assay [4] it was 1.13 µM; in [5] it was 1.02 µM; in assay [6], 5.44 µM. In addition, the GI50 in assay [7] is 7.12 µM; in assay [8], 2.92 µM; in assay [9], 3.64 µM; in assay [10] it was 2.3 µM. Further, the TGI in [1] amounted to 3.45 µM; in assay [2], 2.21 µM; in assay [3], 2.76 µM; in [4], 2.3 µM; in [5] it was 2.32 µM; in [6] it was 12.2 µM. Moreover, the TGI was found to be 13.7 µM in assay [7], 5.95 µM in assay [8], 10.8 µM in assay [9] and 5.88 µM in assay [10].

`C[C@]12CCC(=O)C[C@@H]1CC[C@@H]1[C@@H]2CC[C@]2(C)[C@@H](OC(=O)N(CCCl)N=O)CC[C@@H]12`: the GI50 is 0.321 µM in [1]; 2.26 µM in [2]; 9.48 µM in assay [3]; 11.9 µM in assay [4]; 1.32 µM in assay [5]; 1.22 µM in [6]. Besides, the GI50 in assay [7] was 6.43 µM; in [8] it was 1.41 µM; in assay [9], 0.507 µM; in [10] it was 1.11 µM. Further, the TGI in [1] is 11.7 µM; in assay [2], 14 µM; in [3] it was 24.4 µM; in assay [4], 30.4 µM; in [5], 25.4 µM; in assay [6] it was 28 µM. Moreover, the TGI in [7] worked out at 23 µM; in [8], 13.6 µM; in assay [9], 13.3 µM; in assay [10], 10.5 µM.

`CC(=O)c1c(C)c2cnc(Nc3ccc(N4CCNCC4)cn3)nc2n(C2CCCC2)c1=O`: the GI50 is 1.03 µM in assay [1]; 4.41 µM in [2]; 9.84 µM in assay [3]; 6.07 µM in [4]; 11.1 µM in assay [5]; 16.7 µM in [6]. The GI50 in assay [7] was 12.3 µM; in [8], 9.73 µM; in [9], 10.7 µM; in [10], 2.6 µM. Besides, the TGI in [1] came out at 14.7 µM; in [2] it was 20 µM; in assay [3], 24.9 µM; in assay [4] it was 22.4 µM; in assay [5], 27 µM; in assay [6], 33.8 µM. Moreover, the TGI in [7] turned out to be 25.7 µM; in [8] it was 22.1 µM; in assay [9], 23.4 µM; in assay [10] it was 20.1 µM.

`CCN1C(=O)N(CC)C2C1N=C(SC)N2/N=C/C=C/c1ccccc1OC` (centres undefined): the GI50 in [1] was 0.724 µM; in assay [2], 0.37 µM; in assay [3], 0.348 µM; in assay [4], 2.14 µM; in assay [5], 0.51 µM; in [6], 0.329 µM. The GI50 is above 32.1 µM in assay [7], 0.743 µM in [8], 0.363 µM in assay [9] and 0.821 µM in assay [10]. Also, the TGI in [1] is above 49.3 µM; in assay [2] it was above 35.7 µM; in assay [3] it was 10.8 µM; in assay [4], above 52.3 µM; in assay [5], above 38.8 µM; in assay [7] it was above 50.3 µM. Also, the results for the TGI in assay [8], in assay [9] and in assay [10] were above 59.5 µM, 52.5 µM and above 47.3 µM, respectively.

In the case of `S=C(SSC(=S)N1CCCCC1)N1CCCCC1`, the GI50 was 15.5 µM in [1]; 16.5 µM in assay [2]; 15.2 µM in assay [3]; 34.6 µM in assay [4]; 16.3 µM in [5]; 15.7 µM in assay [6]. Also, the GI50 in assay [7] was 18.9 µM; in assay [8], 48.4 µM; in assay [9], 16.7 µM; in assay [10] it was 19.2 µM. The TGI is 41 µM in assay [1]; 66.8 µM in assay [2]; 41.2 µM in [3]; above 100 µM in assay [4]; 36 µM in assay [5]; 40.9 µM in [6]. For the same compound, the TGI was 69.3 µM in assay [7], above 100 µM in assay [8], 57.6 µM in assay [9] and above 100 µM in assay [10].

Take `COC(=O)CC1=C(C)/C(=C/c2[nH]c(-c3ccc[nH]3)cc2OC)N=C1C`: the GI50 in assay [1] is 0.247 µM; in assay [2], 0.0992 µM; in assay [3], 0.0681 µM; in assay [4], 0.068 µM; in [5], 0.325 µM; in assay [6], 0.324 µM. For the same compound, the GI50 in assay [7] was 0.456 µM; in [8], 0.581 µM; in assay [9], 0.137 µM; in assay [10], 0.187 µM. Moreover, the TGI in assay [1] is 1.29 µM; in assay [2] it was 0.894 µM; in [3] it was 0.994 µM; in [4] it was 0.881 µM; in [5] it was 3.09 µM; in [6] it was 2.34 µM. Moreover, the TGI is 2.53 µM in assay [7], 4.19 µM in assay [8], 2.16 µM in [9] and 0.633 µM in [10].

As to `Cc1ccc(-c2nc3sc(C)cn3c2/C=C2\C(=O)Nc3ccc(Cl)cc32)cc1`, the GI50 is 4.27 µM in [1]; 17.2 µM in [2]; 4.35 µM in [3]; 22.9 µM in assay [4]; 12.4 µM in assay [5]; 15.7 µM in assay [6]. Moreover, the GI50 in assay [7] was 18 µM; in assay [8], 7.05 µM; in assay [9] it was 3.1 µM; in assay [10], 28.1 µM. Besides, the TGI in [1] is 16 µM; in [2], 34.4 µM; in assay [3] it was 20.1 µM; in assay [4], above 100 µM; in assay [5], 26 µM; in assay [6], 34.2 µM. For the same compound, the TGI in assay [7] was 34.5 µM; in assay [8] it was 25.1 µM; in [9] it was 8.44 µM; in [10], above 100 µM.

Consider `CSc1nc2c(c(=O)n1C)C(c1ccccc1)C1=C(N2)/C(=C/c2ccccc2)CCC1` (centres undefined), for which the GI50 in [1] was 3.56 µM; in [2], 4.1 µM; in [3] it was 17.4 µM; in [4] it was 18.4 µM; in assay [5], 7.1 µM; in assay [6], 4.07 µM. The GI50 is above 100 µM in assay [7], 25.1 µM in [8], 11.3 µM in [9] and 1.69 µM in assay [10]. The TGI in assay [1] is 50.5 µM; in assay [2], above 100 µM; in assay [3], above 100 µM; in assay [4], above 100 µM; in assay [5] it was above 100 µM; in [6] it was above 100 µM. Further, the TGI in assay [7] was above 100 µM; in assay [8], 78.7 µM; in assay [9] it was 29.7 µM; in assay [10], 30.7 µM.

Turning to `COc1ccc(-c2c(-c3ccc(C#N)c(F)c3)nc(N3CCC(N)CC3)n(C)c2=O)cc1F`, the GI50 in [1] is 15.8 µM; in assay [2], 21.6 µM; in assay [3] it was 12.5 µM; in [4], 50 µM; in assay [5] it was 19.6 µM; in assay [6], 21.6 µM. Besides, the GI50 was 15.3 µM in [7], 15.8 µM in assay [8], 10.9 µM in assay [9] and 9.31 µM in assay [10]. For the same compound, the TGI in assay [1] was 41.5 µM; in assay [2] it was 99.2 µM; in assay [3], 26.7 µM; in [4], above 100 µM; in assay [5], 91.6 µM; in assay [6], 63.1 µM. In addition, the TGI in [7] was determined as 29.8 µM; in assay [8], 45.8 µM; in assay [9] it was 27.7 µM; in [10], 22.9 µM.

For the compound `Cc1cc(N(CCNc2ccnc3cc(Cl)ccc23)Cc2ccc3c(c2)OCO3)nc(N2CCCC2)n1`, the GI50 in [1] is 1.91 µM; in assay [2], 1.22 µM; in assay [3], 1.28 µM; in assay [4], 2.46 µM; in assay [5] it was 2 µM; in assay [6], 1.79 µM. Further, the GI50 in assay [7] was 1.68 µM; in assay [8] it was 2.63 µM; in [9], 1.34 µM; in assay [10], 1.26 µM. The TGI in assay [1] came out at 4.09 µM; in [2], 3.18 µM; in assay [3] it was 3.27 µM; in assay [4], 6.86 µM; in assay [5] it was 6.25 µM; in [6], 5.56 µM. Moreover, the TGI in [7] is 3.2 µM; in [8], 8.15 µM; in assay [9], 3 µM; in [10] it was 2.99 µM.

As to `Cc1c(C(N)=O)sc2nc(C)n(/N=c3\scc(-c4ccccc4)n3Cc3ccccc3)c(=O)c12`, the GI50 in [1] is 2.86 µM; in assay [2], 2.64 µM; in assay [3] it was 3.28 µM; in assay [4], 3.72 µM; in assay [5], 3.12 µM; in [6], 2.9 µM. For the same compound, the GI50 is 3.56 µM in assay [7], 4.51 µM in assay [8], 2.8 µM in [9] and 1.66 µM in assay [10]. Besides, the TGI was above 100 µM in assay [1]; above 100 µM in [2]; 8.41 µM in [3]; 67.9 µM in assay [4]; above 100 µM in [5]; 29.2 µM in assay [6]. In addition, the TGI was above 100 µM in assay [7], above 100 µM in assay [8], above 100 µM in [9] and 7 µM in assay [10].

`COc1cc(C(=O)O[C@H](C(=O)NCCCCNC(=O)[C@@H](OC(=O)c2cc(OC)cc3c(C)cccc23)[C@]2(C)CO2)[C@]2(C)CO2)c2cccc(C)c2c1`: the GI50 in assay [1] is below 0.01 µM; in assay [2] it was 0.104 µM; in assay [3], 1.85 µM; in [4] it was 0.62 µM; in assay [5], below 0.01 µM; in assay [6], 0.199 µM. In addition, the GI50 in assay [7] is 0.0409 µM; in [8], 0.703 µM; in [9], 0.114 µM; in assay [10], 0.466 µM. Besides, the TGI is below 0.01 µM in [1]; 1.18 µM in assay [2]; 5.48 µM in [3]; 2.07 µM in [4]; 0.118 µM in assay [5]; 0.904 µM in assay [6]. The TGI in [7] was 50 µM; in [8] it was 6.19 µM; in [9], 0.373 µM; in assay [10], above 100 µM.
